In patent publication US7700109B2, “Biomolecule transduction motif Mph-1-BTM and the use thereof” (ForHumanTech. Co., Ltd., priority 2002, dated 2010):

Experiments:
[1] = tested on: HUVEC, HeLa, 293 and Jurkat cells; assay: Transduction of fusion protein across cell membrane, β-galactosidase staining on slides; assay type: cell-based; conditions: 0.5 μM, 30 min at 37° C., HeLa, 293, Jurkat cells
Procedure: HUVEC (ATCC:CRL-1730) (2×10^5), HeLa (ATCC:CCL-2) (2×10^5), and 293 (ATCC:CRL-1573) (2×10^5), which were incubated in 10% FBS (Fetal Bovine Serum) of DMEM, were respectively transferred to Lab-tek II chamber slides. Jurkat cells (ATCC:CRL-10915) (2×10^5) incubated in 10% EBS RPMI were transferred to poly-L-lysin coated slides. Each of the slides was treated with the purified 0.5 μM of Mph-1-β-galactosidase for 30 min at 37° C. in 5% CO2 incubator. And the supernatants were removed from the slides. The incubation mixtures were washed using ice-cold PBS four times and then were solidified with 2% formaldehyde solution for 10 min. After removing the solidified solutions, the mixtures were washed again using ice-cold PBS four times. Subsequently, the respective mixtures were treated with 700 μl of β-galactosidase staining solution (Roche. Colo.) for 45 min at 37° C. in 5% CO2 incubator. Following the staining, the mixtures were washed with ice-cold PBS four times after removing the supernatants. Next, the mixtures were mounted with 70% glycerol on the microscope slides.

Jurkat T cells = assay: Screening of candidate PTD-β-galactosidase fusion proteins for transduction; assay type: cell-based; conditions: fusion with β-galactosidase
Description: Based on these two hypotheses and requisites, we searched the gene bank. With the factor that the conventional PTDs have lysines and arginines abundantly, we selected about 10,000 primary candidate genes. Among them, 500 genes were chosen by applying the requisites of signal peptide, and 100 genes of the 500 genes were confirmed as to have alanine and valine. Finally, 20 genes were selected by applying the factors required for the transcription factors, and then the transduction efficiencies were tested therefor. In addition, fusion proteins of each of these candidate PTDs and β-galactosidase were expressed and purified, and the functions of these proteins were detected using Jurkat T cells.

Substance	transduction across the cell membranes (β-galactosidase staining) [1]	transduction ability (Jurkat T cells)
β-gal: β-galactosidase reporter protein alone, without transduction peptide	not transduced at all	–
Mph-1-BTM: amino acid sequence 858 to 868 of Mph-1, a mouse transcription factor (SEQ ID NO:1) (YARVRRRGPRR; Biomolecule transduction motif)	–	unexpectedly significant transduction ability
